Test results reported in patent publication US20250375526A1, “IRAK DEGRADERS AND USES THEREOF” (Kymera Therapeutics, Inc., priority 2020, published 2025).

test system: OCI-LY10 cells; test: CellTiter-Glo Luminescent Cell Viability Assay; format: cell-based; conditions: Homo sapiens, 96 h, incubated 4 days, read-out: OCI-LY10 CTG IC50
Description: Compound-mediated viability effect on OCI-LY10 was quantitatively determined using the CellTiter-Glo® Luminescent Cell Viability Assay kit from Promega (Catalog number G7570) following manufacturer's recommended procedures. Briefly, OCI-LY10 cells were seeded into 384 well plates (Grenier Bio-One, Catalog number 781080) with a density of 10,000 cells per well. Compounds were then added to the assay plate with final top concentration of 10 μM and 1:3 dilution series with total of 9 doses. The final DMSO concentration was normalized to 0.2%. The assay plates were incubated at 37° C. for 4 days under 5% CO2. Then the assay plate was equilibrated at room temperature for 10 minutes. To determine cell viability, 30 μL CellTiter Glo reagent was added to each well and the assay plate was centrifuged at 1000 rpm for 30 second, incubated at room temperature for 10 min, and analyzed by detecting the luminescence using a multimode plate reader (EnVision 2105, PerkinElmer). The data was then analyzed by software Prism 7.0 from GraphPad and the dose response curves were fit using a three-parameter logistic equation to calculate IC50.
The letter codes for OCI-LY10 CTG IC50 include: A (<1 μM), B (1-10 μM), C (>10 μM).

| SMILES | IC50 [nM] |
| --- | --- |
| CC(C)(O)c1cc2nn([C@H]3CC[C@H](CN4CCC(c5ccc6c(N7CCC(=O)NC7=O)cncc6c5)CC4)CC3)cc2cc1NC(=O)c1cccc(C(F)(F)F)n1 [I-6] | 1000 to 10000 |
| O=C1CCN(c2cnc3cc(C4CCN(C[C@H]5CC[C@H](n6cc7cc(NC(=O)c8cccc(C(F)(F)F)n8)ccc7n6)CC5)CC4)ccn23)C(=O)N1 [I-32] | < 1000 |
| O=C1CCN(c2cnc3cc(C#CCOC4CCN(C[C@H]5CC[C@H](n6cc(NC(=O)c7cnn8ccc(N9C[C@H]%10C[C@@H]9CO%10)nc78)c(C(F)F)n6)CC5)CC4)ccn23)C(=O)N1 [I-3] | 1000 to 10000 |
| COc1cc2nn([C@H]3CC[C@H](CN4CCC(c5cccn6c(N7CCC(=O)NC7=O)cnc56)CC4)CC3)cc2cc1NC(=O)c1cccc(C(F)(F)F)n1 [I-26] | < 1000 |
| COc1cc2nn([C@H]3CC[C@H](CN4CCC(c5ccc6c(N7CCC(=O)NC7=O)cncc6c5)CC4)CC3)cc2cc1NC(=O)c1cccc(C(F)(F)F)n1 [I-17] | < 1000 |
| CN(C[C@H]1CC[C@H](n2cc3cc(NC(=O)c4cccc(C(F)(F)F)n4)c(C(C)(C)O)cc3n2)CC1)C1CCN(c2ccc3c(N4CCC(=O)NC4=O)cncc3c2)CC1 [I-5] | 1000 to 10000 |
| CN(C[C@H]1CC[C@H](n2cc3cc(NC(=O)c4cccc(C(F)(F)F)n4)c(C(C)(C)O)cc3n2)CC1)C1CCN(c2cccc3c(N4CCC(=O)NC4=O)cncc23)CC1 [I-7] | > 10000 |

target: T1, IRAK4 (Homo sapiens, UniProt Q9NWZ3); test: OCI-LY10 IRAK MSD assay DC50 (IRAK4 degradation); format: cell-based; conditions: OCI-Ly10 cells, incubated for 4 hr, concentration of compound required to degrade 50% of protein
T1 construct: endogenous in cells; host or cells: OCI-Ly10
T1 sequence (Q9NWZ3 1-460): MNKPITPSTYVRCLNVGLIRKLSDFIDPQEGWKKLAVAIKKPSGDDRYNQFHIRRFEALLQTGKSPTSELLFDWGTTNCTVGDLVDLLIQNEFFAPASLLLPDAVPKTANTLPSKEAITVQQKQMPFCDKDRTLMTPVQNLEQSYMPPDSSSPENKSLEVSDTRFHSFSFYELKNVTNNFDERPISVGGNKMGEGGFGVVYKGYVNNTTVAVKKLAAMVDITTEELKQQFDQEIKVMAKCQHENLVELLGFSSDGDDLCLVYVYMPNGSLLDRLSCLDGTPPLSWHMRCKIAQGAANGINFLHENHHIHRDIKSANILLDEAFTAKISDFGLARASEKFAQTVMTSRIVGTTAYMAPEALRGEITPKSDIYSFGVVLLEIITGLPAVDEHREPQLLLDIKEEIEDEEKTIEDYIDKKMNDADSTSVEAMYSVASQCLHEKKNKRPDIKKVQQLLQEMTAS
Description: A MSD assay is run to determine the concentration of compound required to degrade 50% of protein (DC50).
• Compounds were reconstituted to 10 mM in stock solutions. The stock solutions were diluted to 5 mM and 45 μL of each dilution was transferred to a 384 pp-plate. A 3 fold, 8-point serial dilution was performed by transferring 15 μL of compound into 30 μL DMSO using Janus. • 20 nL of each compound were added into each well of a 96-well plate (Corning3799). • OCI-Ly10 cells were seeded into the 96-well plate at 3.0*10e^5 cells/100 μL/well. • The cell plate was shaken at 720 rpm for 5 min and incubated for 4 hr. • 100 μL of cells were transferred into the 96-PCR plate and spun down at high speed for 5 mins. • The supernatant was discarded and 100 μL of RIPA lysis buffer with proteinase inhibitors was added per well. The plate was then sealed and shaken at 600 rpm and 4° C. for about 20 min. • The plate was then spun down at high speed (about 3200 g) for 30 min and then frozen in a −80° C. fridge. • A bare MSD plate (L15XA-3) was coated with 2 μg/mL of capture antibody (mouse Anti-IRAK4 antibody [2H9], ab119942) in PBS to 40 μL/well and incubated overnight at 4° C.
• The MSD coated plate was washed 3× (150 μL/well) with 1×TBST (CST #9997S). • The MSD plate was then blocked with 150 μL of blocking buffer [3% Blocker A (MSD, R93BA-4) in TBST]/well and shaken for 1 hr at RT and 600 rpm. • The MSD plate was washed 3× (150 μL/well) with 1×TBST. The sample RIPA lysates were then added to the MSD plate (50 μL/well) and shaken for 1 hr at RT and 600 rpm. • The MSD plate was washed 3× (150 μL/well) with 1×TBST and the primary detection antibody (Rabbit Anti-IRAK4 antibody [Y279], ab32511) was added to a final concentration of 1 μg/ml with 25 μL/well. The plate was then shaken for 1 hr at RT and 600 rpm. • The MSD plate was washed 3× (150 μL/well) with 1×TBST and the secondary detection antibody, SULFO-TAG anti-species antibody (Anti Rabbit Antibody (R32AB-5) MSD, R32AB-1) was added to a volume of 25 μL/well at a final concentration of 1 μg/ml. The plate was then shaken for 1 hr at RT and 600 rpm. • The MSD plate was then washed 3× (150 μL/well) with 1×TBST. • 1×MSD reading buffer was then added (150 μL/well) and the plate […].
(MSD, R92TC-2) • The MSD instrument was then read.
The remaining activity was calculated following the formula below:
• The DC50 was calculated by fitting the Curve using Xlfit (v5.3.1.3), equation 201: […]
The letter codes for IRAK4 DC50 indicate the concentration of compound required to degrade 50% of protein: A (<0.01 μM), B (0.01-0.1 μM), C (>0.1-0.2 μM), D (>0.2 μM).

| SMILES | DC50 [nM] |
| --- | --- |
| O=C1CCN(c2cnc3cc(C4CCN(C[C@H]5CC[C@H](n6cc7cc(NC(=O)c8cccc(C(F)(F)F)n8)ccc7n6)CC5)CC4)ccn23)C(=O)N1 [I-32] | > 200 |
| O=C1CCN(c2cnc3cc(C#CCOC4CCN(C[C@H]5CC[C@H](n6cc(NC(=O)c7cnn8ccc(N9C[C@H]%10C[C@@H]9CO%10)nc78)c(C(F)F)n6)CC5)CC4)ccn23)C(=O)N1 [I-3] | < 10 |
| COc1cc2nn([C@H]3CC[C@H](CN4CCC(c5cccn6c(N7CCC(=O)NC7=O)cnc56)CC4)CC3)cc2cc1NC(=O)c1cccc(C(F)(F)F)n1 [I-26] | 10 to 100 |
| O=C1CCN(c2cnc3cc(C4CCN(C[C@H]5C[C@H](n6cc7cc(NC(=O)c8cccc(C(F)(F)F)n8)ccc7n6)C5)CC4)ccn23)C(=O)N1 [I-85] | > 200 |
| COc1cc2nn([C@H]3CC[C@H](CN(C)C4CCN(c5cccn6c(N7CCC(=O)NC7=O)cnc56)CC4)CC3)cc2cc1NC(=O)c1cncc(Cl)c1 [I-88] | > 200 |
| O=C1CCN(c2cnc3cc(C4CCN(C[C@H]5CC[C@H](n6cc7cc(NC(=O)c8cccc(C(F)(F)F)n8)ncc7n6)CC5)CC4)ccn23)C(=O)N1 [I-37] | > 200 |
| COc1cc2nn([C@H]3CC[C@H](CN4C5CC4CN(c4cccn6c(N7CCC(=O)NC7=O)cnc46)C5)CC3)cc2cc1NC(=O)c1cccc(C(F)(F)F)n1 [I-57] | 10 to 100 |
| N#Cc1cc2nn([C@H]3CC[C@H](CN4CCC(c5ccn6c(N7CCC(=O)NC7=O)cnc6c5)CC4)CC3)cc2cc1NC(=O)c1cccc(C(F)(F)F)n1 [I-66] | < 10 |
| O=C1CCN(c2cnc3c(C4CCN(C[C@H]5C[C@H](n6cc7cc(NC(=O)c8cccc(C(F)(F)F)n8)ccc7n6)C5)CC4)cccn23)C(=O)N1 [I-39, N-[2-[3-[[4-[3-(2,4-dioxohexahydropyrimidin-1-yl)imidazo[1,2-a]pyridin-8-yl]-1-piperidyl]methyl]cyclobutyl]indazol-5-yl]-6-(trifluoromethyl)pyridine-2-carboxamide] | > 200 |
| C[C@@H]1CN(C[C@H]2CC[C@H](n3cc(NC(=O)c4cnn5ccc(N6C[C@H]7C[C@@H]6CO7)nc45)c(C(F)F)n3)CC2)CC[C@H]1OCC#Cc1ccn2c(N3CCC(=O)NC3=O)cnc2c1 [I-64] | < 10 |
| C[C@H]1CN(C[C@H]2CC[C@H](n3cc(NC(=O)c4cnn5ccc(N6C[C@H]7C[C@@H]6CO7)nc45)c(C(F)F)n3)CC2)CC[C@@H]1OCC#Cc1ccn2c(N3CCC(=O)NC3=O)cnc2c1 [I-63] | < 10 |
| COc1cc2nc([C@H]3CC[C@H](CN4CCC(c5cccn6c(N7CCC(=O)NC7=O)cnc56)CC4)CC3)sc2cc1NC(=O)c1cccc(C(F)(F)F)n1 [I-79] | < 10 |
| O=C1CCN(c2cnc3cc(C#CCO[C@@H]4CCN(C[C@H]5C[C@H](n6cc(NC(=O)c7cnn8ccc(N9C[C@H]%10C[C@@H]9CO%10)nc78)c(C(F)F)n6)C5)C[C@@H]4F)ccn23)C(=O)N1 [I-42] | < 10 |
| O=C1CCN(c2cnc3cc(C#CCN4CCN(C[C@H]5CC[C@H](n6cc(NC(=O)c7cnn8ccc(N9C[C@H]%10C[C@@H]9CO%10)nc78)c(C(F)F)n6)CC5)CC4)ccn23)C(=O)N1 [I-75] | < 10 |
| COc1cc2nc([C@H]3CC[C@H](CN(C)C4CCN(c5ccn6c(N7CCC(=O)NC7=O)cnc6c5)CC4)CC3)sc2cc1NC(=O)c1cccc(C(F)(F)F)n1 [I-80] | 10 to 100 |
| C[C@H]1CN(C[C@H]2C[C@H](n3cc(NC(=O)c4cnn5ccc(N6C[C@H]7C[C@@H]6CO7)nc45)c(C(F)F)n3)C2)CC[C@@H]1OCC#Cc1ccn2c(N3CCC(=O)NC3=O)cnc2c1 [I-59] | < 10 |
| O=C1CCN(c2cnc3c(C4CCN(C[C@H]5CC[C@H](n6cc7cc(NC(=O)c8cccc(C(F)(F)F)n8)ccc7n6)CC5)CC4)cccn23)C(=O)N1 [I-28] | > 200 |
| CC(C)Nc1cc(-c2ccc3cc(C#N)cnn23)ncc1C(=O)N[C@H]1CC[C@H](CN2CCC(c3ccn4c(N5CCC(=O)NC5=O)cnc4c3)CC2)CC1 [I-74] | 10 to 100 |
| COc1cc2nn([C@H]3CC[C@H](CN4C5CCC4CN(c4ccn6c(N7CCC(=O)NC7=O)cnc6c4)C5)CC3)cc2cc1NC(=O)c1cccc(C(F)(F)F)n1 [I-45] | 10 to 100 |
| Cc1cc2nn([C@H]3CC[C@H](CN4CCN(c5cccn6c(N7CCC(=O)NC7=O)cnc56)CC4)CC3)cc2cc1NC(=O)c1cccc(C(F)(F)F)n1 [I-49] | 10 to 100 |
| COc1cc2nn([C@H]3C[C@H](CN4CCC(c5cccc6c(N7CCC(=O)NC7=O)cncc56)CC4)C3)cc2cc1NC(=O)c1cccc(C(F)(F)F)n1 [I-40] | 10 to 100 |
| COc1cc2nn([C@H]3CC[C@H](CN4CCC(c5cccn6c(N7CCC(=O)NC7=O)cnc56)CC4)CC3)cc2cc1NC(=O)c1cncc(C#N)c1 [I-83] | 100 to 200 |
| CC(C)Nc1cc(-n2ccc3cc(C#N)cnc32)ncc1C(=O)N[C@H]1CC[C@H](CN2CCC(c3ccn4c(N5CCC(=O)NC5=O)cnc4c3)CC2)CC1 [I-77] | 10 to 100 |
| COc1cc2nc([C@H]3CC[C@H](CN(C)C4CCN(c5cccn6c(N7CCC(=O)NC7=O)cnc56)CC4)CC3)sc2cc1NC(=O)c1cccc(C(F)(F)F)n1 [I-44] | 10 to 100 |
| N#Cc1cnc2c(C(=O)Nc3ccc4nn([C@H]5CC[C@H](CN6CCC(c7ccn8c(N9CCC(=O)NC9=O)cnc8c7)CC6)CC5)cc4c3)cnn2c1 [I-72] | > 200 |
| COc1cc2nc([C@H]3CC[C@H](CN4CCC(c5ccn6c(N7CCC(=O)NC7=O)cnc6c5)CC4)CC3)sc2cc1NC(=O)c1cccc(C(F)(F)F)n1 [I-78] | 10 to 100 |
| COc1cc2nn([C@H]3CC[C@H](CN4CCN(c5cccn6c(N7CCC(=O)NC7=O)cnc56)CC4)CC3)cc2cc1NC(=O)c1cccc(C(F)(F)F)n1 [I-69] | < 10 |
